Read-outs that look alike come from different tables or passages of the source.
What was measured:
mPTPB = mPTPB (Mycobacterium tuberculosis (strain ATCC 25618 / H37Rv), UniProt I6WXK4); assay type: biochemical
SHP2 = SHP2 (Homo sapiens (Human), UniProt Q06124); test: pNPP inhibition assay against SHP2; assay type: biochemical
SHP1 = SHP1 (Homo sapiens (Human), UniProt P29350); test: pNPP inhibition assay against SHP1; assay type: biochemical
PTP1B = PTP1B (Homo sapiens (Human), UniProt P18031); test: pNPP inhibition assay against PTP1B; assay type: biochemical
[1] = Mouse liver microsomal stability; assay type: in vitro ADME; conditions: for Microsome Stability, % remaining: Mouse, after 60 min at 37° C.
Source text: A sufficient oral dosage must survive first-pass clearance through the liver before reaching its biological target. The majority of drugs/xenobiotics undergo phase I metabolism, mediated by the cytochrome P450 (CYP450) family of heme-thiolate proteins predominantly in the liver. Although mouse liver microsomal (MLM) stability studies are not a perfect substitute for in vivo metabolic clearance studies, but they serve as an initial […] model system that can correlate well with human liver microsomal (HLM) stability and in vivo activity in mice. To this end, compounds 4h, 4k, 4t, 4u, and 4v were allowed to react with mouse liver microsomes and the fraction of remaining parent compound over time was determined. […] Incorporation of fluorine into drug candidates generally improves their potency, bioavailability, and metabolic stability. In addition, fluorinated molecules are in general, nontoxic and mimic the corresponding nonfluorinated analogs in their stereoelectronic properties, so the drug's affinity for the receptor either remains the same or, in some cases increases. […] So, the loss of compounds tested here is attributed only to oxidative Phase I metabolism. The high microsomal stability of these compounds could be exploited pharmacologically.
Mouse (CD-1) pooled liver microsomes purchased from Fisher Scientific, IL, USA (0.5 mg/mL, Corning Gentest 3P, cat#452702), and the assay procedures were followed as previously reported. A solution of mouse liver microsomes and 1 mM of co-factor NADPH in 1 ml of phosphate buffer saline (pH=7.4) was prewarmed to 37° C. in an Eppendorf tube. Then 10 μL of a test solution (10 mM DMSO stock) was added to initiate the reaction. Verapamil-HCl was used as a positive control. […] The incubation mixture was kept at 37° C., and 50 μL aliquots were taken at times of 0, 5, 10, 15, 30 or 60 min. Each of the aliquot was quenched using 200 μL of ice-cold acetonitrile. The mixtures were vigorously vortexed and centrifuged to remove the precipitated protein and the supernatants were analyzed by an Agilent Technologies 6470 series, triple quadrupole LC/MS spectrometer to quantitate the remaining parent compound. The percent of the parent compound remaining was calculated from the formula: % parent compound remaining=(concentration at 60 min/concentration at 0 min)*100

PTPβ = PTPβ (Homo sapiens (Human), UniProt P23467); test: biochemical; conditions: pNPP at Km of the PTP
PTPμ = PTPμ (Homo sapiens (Human), UniProt P28827); test: pNPP inhibition assay against PTPμ; assay type: biochemical; conditions: pNPP at Km of the PTP
Laforin = Laforin (Homo sapiens (Human), UniProt O95278); test: pNPP inhibition assay against Laforin; assay type: biochemical; conditions: pNPP at Km of the PTP
CDC14A = CDC14A (Homo sapiens (Human), UniProt Q9UNH5); test: pNPP inhibition assay against CDC14A; assay type: biochemical; conditions: pNPP at Km of the PTP
MKP3 = MKP3 (Homo sapiens (Human), UniProt Q16828); test: pNPP inhibition assay against MKP3; assay type: biochemical; conditions: pNPP at Km of the PTP
LYP = LYP (Homo sapiens (Human), UniProt Q9Y2R2); test: pNPP inhibition assay against LYP; assay type: biochemical; conditions: pNPP at Km of the PTP
DEP-1 = DEP-1 (Homo sapiens (Human), UniProt Q12913); test: pNPP inhibition assay against DEP-1; assay type: biochemical; conditions: pNPP at Km of the PTP
mPTPA = mPTPA (Mycobacterium tuberculosis (strain ATCC 25618 / H37Rv), UniProt P9WIA1); test: biochemical
STEP = STEP (Homo sapiens (Human), UniProt P54829); test: pNPP inhibition assay against STEP; assay type: biochemical; conditions: pNPP at Km of the PTP
[2] = Kinetic solubility in pH 7.4 PBS; assay type: physicochemical; conditions: pH 7.4 PBS buffer
Method: The resulting mixture was stirred at 500 rpm for 90 minutes and then filtered using 0.45 μm PVDF membrane filter. After filtration, the concentration of corresponding compound was determined by HPLC, comparing the AUC obtained with that from a standard solution of the compound. Data represent the mean (t standard deviation, SD) of three separate experiments, performed in triplicate.

MKP5 = MKP5 (Homo sapiens (Human), UniProt Q9Y6W6); test: pNPP inhibition assay against MKP5; assay type: biochemical; conditions: pNPP at Km of the PTP
PTPα = PTPα (Homo sapiens (Human), UniProt P18433); test: pNPP inhibition assay against PTPα; assay type: biochemical; conditions: pNPP at Km of the PTP
PTP-MEG2 = PTP-MEG2 (Homo sapiens (Human), UniProt P43378); test: pNPP inhibition assay against PTP-MEG2; assay type: biochemical; conditions: pNPP at Km of the PTP
HePTP = HePTP (Homo sapiens (Human), UniProt P35236); test: pNPP inhibition assay against HePTP; assay type: biochemical; conditions: pNPP at Km of the PTP
PTPγ = PTPγ (Homo sapiens (Human), UniProt P23470); test: pNPP inhibition assay against PTPγ; assay type: biochemical; conditions: pNPP at Km of the PTP
CD45 = CD45 (Homo sapiens (Human), UniProt P08575); test: pNPP inhibition assay against CD45; assay type: biochemical; conditions: pNPP at Km of the PTP
[3] = Log D by shake flask method; assay type: physicochemical; conditions: n-octanol and pH 7.4 PBS
Method: To determine the lipophilicity of our inhibitors, the Log D at pH 7.4 was measured using the shake flask method. […] The tubes were shaken for 8 hours, centrifuged at 10000 rpm for 5 minutes then n-octanol and phosphate buffered saline layers separated. […] The ratios of AUC of the peaks were used to calculate the Log D in accordance with the equation: Log D=Log10(AUC of octanol layer/AUC of phosphate buffered saline layer)

VHR = VHR (Homo sapiens (Human), UniProt P51452); test: pNPP inhibition assay against VHR; assay type: biochemical; conditions: pNPP at Km of the PTP
TC-PTP = TC-PTP (Homo sapiens (Human), UniProt P17706); test: pNPP inhibition assay against TC-PTP; assay type: biochemical; conditions: pNPP at Km of the PTP
FAP-1 = FAP-1 (Homo sapiens (Human), UniProt Q12923); test: pNPP inhibition assay against FAP-1; assay type: biochemical; conditions: pNPP at Km of the PTP
PTP-PEST = PTP-PEST (Homo sapiens (Human), UniProt Q05209); test: pNPP inhibition assay against PTP-PEST; assay type: biochemical; conditions: pNPP at Km of the PTP
LMPTP-1 = LMPTP-1 (Homo sapiens (Human), UniProt P24666); assay type: biochemical
[4] = Solubility observed for analogs (qualitative)

PTPγ, sequence (P23470 763-1445): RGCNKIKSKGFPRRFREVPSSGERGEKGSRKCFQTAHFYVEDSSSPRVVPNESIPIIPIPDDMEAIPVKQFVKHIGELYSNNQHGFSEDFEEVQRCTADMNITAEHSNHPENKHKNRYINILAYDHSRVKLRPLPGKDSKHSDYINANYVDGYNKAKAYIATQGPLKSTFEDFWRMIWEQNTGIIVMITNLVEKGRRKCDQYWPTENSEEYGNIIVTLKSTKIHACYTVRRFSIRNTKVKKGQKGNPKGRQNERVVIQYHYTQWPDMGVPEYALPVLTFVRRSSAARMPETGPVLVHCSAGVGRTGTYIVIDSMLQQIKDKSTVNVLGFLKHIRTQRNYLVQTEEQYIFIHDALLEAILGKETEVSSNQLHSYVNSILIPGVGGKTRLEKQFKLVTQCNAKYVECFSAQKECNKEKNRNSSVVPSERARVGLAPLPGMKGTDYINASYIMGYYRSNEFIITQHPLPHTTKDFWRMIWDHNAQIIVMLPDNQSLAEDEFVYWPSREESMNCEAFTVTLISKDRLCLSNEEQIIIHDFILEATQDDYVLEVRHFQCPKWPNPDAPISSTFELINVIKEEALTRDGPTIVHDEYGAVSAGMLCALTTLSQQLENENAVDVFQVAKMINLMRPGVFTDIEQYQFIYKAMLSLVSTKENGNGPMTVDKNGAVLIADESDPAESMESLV
PTP1B, sequence (P18031 3-277): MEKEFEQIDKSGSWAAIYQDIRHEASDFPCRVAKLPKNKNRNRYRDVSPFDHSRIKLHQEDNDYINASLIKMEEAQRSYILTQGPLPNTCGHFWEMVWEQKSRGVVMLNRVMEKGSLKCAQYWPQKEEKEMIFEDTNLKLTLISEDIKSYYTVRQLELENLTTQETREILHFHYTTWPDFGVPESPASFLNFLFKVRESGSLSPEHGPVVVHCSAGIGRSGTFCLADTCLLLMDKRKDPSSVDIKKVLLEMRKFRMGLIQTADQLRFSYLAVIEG
SHP1, sequence (P29350 244-515): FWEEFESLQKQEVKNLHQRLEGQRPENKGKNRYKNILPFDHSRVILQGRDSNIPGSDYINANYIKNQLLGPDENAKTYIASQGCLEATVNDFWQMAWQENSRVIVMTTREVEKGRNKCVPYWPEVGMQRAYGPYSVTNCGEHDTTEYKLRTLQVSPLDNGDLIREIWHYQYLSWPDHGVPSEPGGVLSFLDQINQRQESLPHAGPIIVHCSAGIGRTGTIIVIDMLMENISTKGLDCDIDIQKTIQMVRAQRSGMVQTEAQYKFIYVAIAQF
SHP2, sequence (Q06124 247-517): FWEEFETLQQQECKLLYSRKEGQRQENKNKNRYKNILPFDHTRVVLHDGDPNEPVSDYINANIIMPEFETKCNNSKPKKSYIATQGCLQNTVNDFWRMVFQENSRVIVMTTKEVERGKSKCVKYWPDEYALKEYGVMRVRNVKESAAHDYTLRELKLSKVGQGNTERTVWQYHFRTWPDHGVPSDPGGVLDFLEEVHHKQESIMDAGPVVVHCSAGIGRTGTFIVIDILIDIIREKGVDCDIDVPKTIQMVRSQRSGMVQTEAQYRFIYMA
TC-PTP, sequence (P17706 5-275): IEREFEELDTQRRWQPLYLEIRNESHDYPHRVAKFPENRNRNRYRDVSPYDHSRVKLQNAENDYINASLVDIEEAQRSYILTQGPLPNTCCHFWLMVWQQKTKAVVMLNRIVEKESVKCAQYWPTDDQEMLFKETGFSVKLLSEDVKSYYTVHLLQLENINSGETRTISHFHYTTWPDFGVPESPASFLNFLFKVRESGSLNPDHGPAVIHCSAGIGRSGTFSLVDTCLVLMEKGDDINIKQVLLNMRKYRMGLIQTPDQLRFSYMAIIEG
LYP, sequence (Q9Y2R2 24-289, species assumed): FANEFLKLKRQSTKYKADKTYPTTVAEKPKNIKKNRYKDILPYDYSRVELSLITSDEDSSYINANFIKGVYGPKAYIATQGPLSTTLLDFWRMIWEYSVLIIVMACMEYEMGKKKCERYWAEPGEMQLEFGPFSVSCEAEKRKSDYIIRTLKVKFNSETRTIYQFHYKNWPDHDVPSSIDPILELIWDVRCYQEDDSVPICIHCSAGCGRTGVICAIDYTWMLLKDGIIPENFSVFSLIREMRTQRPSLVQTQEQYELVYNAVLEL
MKP5, sequence (Q9Y6W6 321-464, species assumed): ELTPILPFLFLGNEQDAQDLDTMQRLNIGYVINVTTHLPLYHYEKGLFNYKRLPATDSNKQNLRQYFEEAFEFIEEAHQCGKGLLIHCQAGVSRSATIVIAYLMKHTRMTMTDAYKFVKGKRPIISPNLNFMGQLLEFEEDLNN
PTP-PEST, sequence (Q05209 28-293, species assumed): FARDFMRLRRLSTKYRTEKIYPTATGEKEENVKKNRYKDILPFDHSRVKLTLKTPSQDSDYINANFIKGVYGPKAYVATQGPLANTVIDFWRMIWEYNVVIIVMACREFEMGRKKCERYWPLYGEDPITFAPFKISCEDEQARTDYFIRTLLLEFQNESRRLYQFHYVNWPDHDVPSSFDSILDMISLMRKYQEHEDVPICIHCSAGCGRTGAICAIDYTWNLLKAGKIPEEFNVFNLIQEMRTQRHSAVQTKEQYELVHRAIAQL
mPTPB, sequence (I6WXK4 whole entry, looked up): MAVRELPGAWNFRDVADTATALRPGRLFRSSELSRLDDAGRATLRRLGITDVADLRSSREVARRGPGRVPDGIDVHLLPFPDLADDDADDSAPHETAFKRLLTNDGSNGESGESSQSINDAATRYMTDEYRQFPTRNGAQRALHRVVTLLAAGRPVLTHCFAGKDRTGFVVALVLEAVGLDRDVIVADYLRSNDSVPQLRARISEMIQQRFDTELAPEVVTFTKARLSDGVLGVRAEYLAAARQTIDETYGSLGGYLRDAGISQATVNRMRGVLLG
HePTP, sequence (P35236 97-350): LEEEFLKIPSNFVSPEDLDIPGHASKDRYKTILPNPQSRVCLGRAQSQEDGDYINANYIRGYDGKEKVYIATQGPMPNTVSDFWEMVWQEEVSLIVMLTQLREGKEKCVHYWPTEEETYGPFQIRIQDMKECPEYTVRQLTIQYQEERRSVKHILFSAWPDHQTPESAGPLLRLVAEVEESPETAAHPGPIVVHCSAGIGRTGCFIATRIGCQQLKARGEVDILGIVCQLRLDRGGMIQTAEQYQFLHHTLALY
DEP-1, sequence (Q12913 1041-1298, species assumed): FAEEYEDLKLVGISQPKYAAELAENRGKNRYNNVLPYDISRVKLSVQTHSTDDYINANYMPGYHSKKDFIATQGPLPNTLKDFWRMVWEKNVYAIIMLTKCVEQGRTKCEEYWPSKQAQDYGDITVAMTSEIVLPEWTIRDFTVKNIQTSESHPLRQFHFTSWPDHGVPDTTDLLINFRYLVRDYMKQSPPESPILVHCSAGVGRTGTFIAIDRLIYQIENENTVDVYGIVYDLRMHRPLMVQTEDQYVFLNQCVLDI
STEP, sequence (P54829 300-555, species assumed): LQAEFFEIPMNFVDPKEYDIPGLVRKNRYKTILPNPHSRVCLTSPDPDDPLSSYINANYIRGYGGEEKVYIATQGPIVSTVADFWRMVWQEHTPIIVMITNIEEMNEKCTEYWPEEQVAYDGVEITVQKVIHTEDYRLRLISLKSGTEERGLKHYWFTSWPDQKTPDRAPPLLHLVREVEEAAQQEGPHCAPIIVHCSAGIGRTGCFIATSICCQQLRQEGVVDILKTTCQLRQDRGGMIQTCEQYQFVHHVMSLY
LMPTP-1, sequence (P24666 whole entry, looked up): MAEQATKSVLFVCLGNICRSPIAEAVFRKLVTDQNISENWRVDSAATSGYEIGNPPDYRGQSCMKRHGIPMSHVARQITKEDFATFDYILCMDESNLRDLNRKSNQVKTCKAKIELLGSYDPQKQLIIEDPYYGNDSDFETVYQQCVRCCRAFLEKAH
PTPα, sequence (P18433 whole entry, looked up): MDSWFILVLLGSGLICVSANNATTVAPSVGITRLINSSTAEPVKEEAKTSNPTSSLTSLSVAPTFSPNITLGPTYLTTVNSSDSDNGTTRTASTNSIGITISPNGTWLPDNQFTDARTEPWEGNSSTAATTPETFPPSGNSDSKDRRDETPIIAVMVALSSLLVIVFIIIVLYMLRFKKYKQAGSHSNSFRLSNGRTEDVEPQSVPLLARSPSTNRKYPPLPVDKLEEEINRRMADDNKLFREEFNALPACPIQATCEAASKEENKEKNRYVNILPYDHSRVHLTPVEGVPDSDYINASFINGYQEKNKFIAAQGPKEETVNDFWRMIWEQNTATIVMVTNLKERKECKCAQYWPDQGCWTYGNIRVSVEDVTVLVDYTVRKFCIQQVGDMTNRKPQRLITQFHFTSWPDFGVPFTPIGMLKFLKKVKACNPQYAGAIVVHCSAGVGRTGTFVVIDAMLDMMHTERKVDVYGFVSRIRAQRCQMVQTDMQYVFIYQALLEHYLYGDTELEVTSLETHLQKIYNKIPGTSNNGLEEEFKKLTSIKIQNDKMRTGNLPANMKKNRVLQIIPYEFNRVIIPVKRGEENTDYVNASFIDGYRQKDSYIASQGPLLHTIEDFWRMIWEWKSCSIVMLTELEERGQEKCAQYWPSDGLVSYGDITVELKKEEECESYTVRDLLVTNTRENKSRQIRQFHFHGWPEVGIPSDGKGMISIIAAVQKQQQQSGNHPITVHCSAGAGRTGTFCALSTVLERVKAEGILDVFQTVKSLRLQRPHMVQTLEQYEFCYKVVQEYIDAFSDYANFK
FAP-1, sequence (Q12923 2213-2467, species assumed): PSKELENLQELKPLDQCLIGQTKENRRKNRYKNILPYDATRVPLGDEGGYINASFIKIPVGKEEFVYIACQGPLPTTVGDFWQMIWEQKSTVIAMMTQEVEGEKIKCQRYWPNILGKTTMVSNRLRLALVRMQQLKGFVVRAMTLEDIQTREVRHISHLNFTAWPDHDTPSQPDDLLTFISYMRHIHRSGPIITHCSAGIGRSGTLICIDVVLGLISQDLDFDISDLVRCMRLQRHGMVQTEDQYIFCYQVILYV

Q: Which IC50 (mPTPB; pNPP assay, pH 7.0, 3.0 mM pNPP) does the source give for `CC(C)(C)c1ccc(C#Cc2ccc(NC(=O)C(=O)O)cc2)cc1` [Compound 4h, 2-((4-((4-(tert-butyl)phenyl)ethynyl)phenyl)amino)-2-oxoacetic Acid] here?
A: Its IC50 is 0.026 ± 0.005 µM.

Q: And the IC50 (SHP2; pNPP at Km of the PTP)?
A: The IC50 was > 50 µM.

Q: And the IC50 (SHP1; pNPP at Km of the PTP)?
A: The IC50 was > 50 µM.

Q: What about the IC50 (PTP1B; pNPP at Km of the PTP) of the same molecule?
A: The IC50 was > 50 µM.

Q: And the “Microsome Stability, % remaining” value [1]?
A: Its value is 27 ± 2.4%.

Q: And the microsomal stability ranking ([1]; mouse liver microsomes, last time point)?
A: Its microsomal stability ranking is “least stable”.

Q: For `O=C(O)C(=O)Nc1ccc(C#Cc2ccc(C(F)(F)F)cc2)cc1` [Compound 4k, 2-oxo-2-((4-((4-(trifluoromethyl)phenyl)ethynyl)phenyl)amino)acetic Acid], which IC50 (PTPβ) is on record?
A: The IC50 was > 30 µM.

Q: What about the IC50 (PTPμ) of the same molecule?
A: The IC50 was > 30 µM.

Q: What about the IC50 (SHP2; pNPP at Km of the PTP) of the same molecule?
A: The IC50 was > 50 µM.

Q: And the IC50 (SHP1; pNPP at Km of the PTP)?
A: Its IC50 is > 50 µM.

Q: What about the IC50 (Laforin) of the same molecule?
A: Its IC50 is > 30 µM.

Q: What about the IC50 (CDC14A) of the same molecule?
A: Its IC50 is > 30 µM.

Q: And the IC50 (MKP3)?
A: The IC50 was > 30 µM.

Q: And the IC50 (LYP)?
A: The IC50 was > 50 µM.

Q: And the IC50 (DEP-1)?
A: The IC50 was > 30 µM.

Q: What about the IC50 (mPTPA) of the same molecule?
A: The IC50 was > 50 µM.

Q: What about the IC50 (STEP) of the same molecule?
A: Its IC50 is > 30 µM.

Q: What about the “Aq. Sol (μM), kinetic solubility” value [2] of the same molecule?
A: The value was 22.4 µM.

Q: What about the IC50 (MKP5) of the same molecule?
A: Its IC50 is > 30 µM.

Q: What about the IC50 (PTPα) of the same molecule?
A: Its IC50 is > 30 µM.

Q: What about the IC50 (PTP1B; pNPP at Km of the PTP) of the same molecule?
A: The IC50 was > 50 µM.

Q: And the IC50 (PTP-MEG2)?
A: Its IC50 is > 30 µM.

Q: And the IC50 (HePTP)?
A: Its IC50 is > 50 µM.

Q: And the IC50 (PTPγ)?
A: The IC50 was > 30 µM.

Q: What about the IC50 (CD45) of the same molecule?
A: Its IC50 is > 30 µM.

Q: What about the “Microsome Stability, % remaining” value [1] of the same molecule?
A: Its value is 38 ± 1.6%.

Q: What about the LogD [3] of the same molecule?
A: The LogD was 1.97.

Q: What about the IC50 (VHR) of the same molecule?
A: Its IC50 is > 30 µM.

Q: What about the IC50 (TC-PTP) of the same molecule?
A: The IC50 was > 50 µM.

Q: And the IC50 (FAP-1)?
A: Its IC50 is > 30 µM.

Q: What about the IC50 (PTP-PEST) of the same molecule?
A: The IC50 was > 30 µM.

Q: What does the source list for `CN(C)c1cc(O)c(C(=O)O)cc1C#Cc1cccc(NC(=O)C(=O)O)c1` [Compound 4g, 5-((3-(carboxyformamido)phenyl)ethynyl)-4-(dimethylamino)-2-hydroxybenzoic Acid]?
A: IC50 (mPTPB): 0.16 µM; IC50 (SHP2): 47.5 ± 3.5 µM; IC50 (SHP1): 38.5 ± 4.2 µM; IC50 (LYP): > 50 µM; IC50 (mPTPA): > 50 µM; IC50 (LMPTP-1): 34.5 µM; IC50 (MKP5): > 50 µM; IC50 (PTP1B): 45.1 ± 4.5 µM; IC50 (PTPγ): > 50 µM; IC50 (TC-PTP): > 50 µM; IC50 (PTP-PEST): > 50 µM

Q: With `O=C(O)C(=O)Nc1ccc(C#Cc2ccc3ccccc3c2)cc1` [Compound 4q, 2-((4-(naphthalen-2-ylethynyl)phenyl)amino)-2-oxoacetic Acid] as the molecule, how does the IC50 (SHP2; pNPP at Km of the PTP) read?
A: The IC50 was > 50 µM.

Q: What about the IC50 (SHP1; pNPP at Km of the PTP) of the same molecule?
A: The IC50 was > 50 µM.

Q: What about the IC50 (PTP1B; pNPP at Km of the PTP) of the same molecule?
A: Its IC50 is > 50 µM.

Q: What about the “solubility (in words)” value [4] of the same molecule?
A: The value was “poor solubility”.

Q: Which IC50 (SHP2; pNPP at Km of the PTP) does the source give for `O=C(O)C(=O)Nc1ccc(C#Cc2ccc(C(F)(F)F)cc2Cl)cc1` [Compound 4t, 2-((4-((2-chloro-4-(trifluoromethyl)phenyl)ethynyl)phenyl)amino)-2-oxoacetic Acid] here?
A: Its IC50 is > 30 µM.

Q: And the IC50 (SHP1; pNPP at Km of the PTP)?
A: Its IC50 is > 30 µM.

Q: What about the IC50 (LYP) of the same molecule?
A: Its IC50 is > 30 µM.

Q: And the IC50 (mPTPA)?
A: Its IC50 is > 30 µM.

Q: And the IC50 (MKP5)?
A: Its IC50 is > 30 µM.

Q: And the IC50 (PTP1B; pNPP at Km of the PTP)?
A: Its IC50 is > 30 µM.

Q: What about the IC50 (PTPγ) of the same molecule?
A: The IC50 was > 30 µM.

Q: And the “Microsome Stability, % remaining” value [1]?
A: Its value is 56 ± 1.5%.

Q: And the IC50 (TC-PTP)?
A: Its IC50 is > 30 µM.

Q: And the IC50 (PTP-PEST)?
A: Its IC50 is > 30 µM.

Q: Which IC50 (SHP2; pNPP at Km of the PTP) does the source give for `O=C(O)C(=O)Nc1ccc(C#Cc2ccc(OCc3ccccc3)cc2)cc1` [Compound 4r, 2-((4-((4-(benzyloxy)phenyl)ethynyl)phenyl)amino)-2-oxoacetic Acid] here?
A: The IC50 was 15.3 ± 2.1 µM.

Q: What about the IC50 (SHP1; pNPP at Km of the PTP) of the same molecule?
A: The IC50 was 16.8 ± 3.3 µM.

Q: What about the IC50 (PTP1B; pNPP at Km of the PTP) of the same molecule?
A: The IC50 was 38.9 ± 5 µM.

Q: What about the “solubility (in words)” value [4] of the same molecule?
A: Its value is “poor solubility”.

From patent US11192850B2, “N-aryl oxamic acids” (Purdue Research Foundation, priority 2020, dated 2021)
